# Measured values published in patent publication US20260200849A1, “CATIONIC LIPIDS AND PREPARATION METHOD THEREOF” (RiboX Therapeutics HK Limited, priority 2024, published 2026).
# Where “and” joins values, the source holds several entries; their conditions need not be identical. Identical values can stand only once.
# How the values were obtained:
# IL-6 = experiment: In vivo tolerability by IM: serum IL-6 by Luminex; conditions: IM 1.0 mg/kg, male C57BL/6J mice N=3, Formulation 001, RNA 331
# Method: (§1) 6-8 week old, male C57BL/6J mice (N=3) were injected with 1.0 mg*kg−1 of RNA-LNPs encoding for firefly-luciferase by intramuscular injection. At 2- and 24-hours post injection, about 40 μL blood was harvested and immediately added to the procoagulant containing tube. Stand for 30 min at room temperature and then centrifuged at 2500 g×10 min to obtain serum. About 15 μL serum samples were aliquoted for cytokine (MCP-1 and IL-6) detection by Luminex (ProcartaPlex Mouse 2-plex, Thermo). PBS group as negative control.
# Hep G2 cells [1] = experiment: In vitro toxicity: Hep G2 cell viability by CellTiter-Glo; assay type: cell-based; conditions: 72 hours post transfection, cell only = 100%
# Method: 2E5 Hep G2 cells were transfected with 1 μg/mL RNA-LNPs. At 72 hours post transfection, cell viability (2-well repeat) was determined with the CellTiter-Glo® reagent kit, according to the kit protocol, measured by a luminometer. Cell only as control (100%).
# The cell viability was calculated according to the following formula: […]
# [2] = LNP size and polydispersity index (PDI) by dynamic light scattering (Zetasizer); assay type: physicochemical; conditions: for Size (nm): Formulation No. 010 (Ionizable lipid:DSPC:cholesterol:DSPE-PEG2000 = 38:30:30:2, N/P 6), RNA No. 331
# Method: (§2) The LNP size and polydispersity index (PDI), determined by dynamic light scattering (DLS), and zeta potential were measured by a Zetasizer machine (Malvern). RNA concentration and encapsulation efficacy (EE %) were analyzed by the Quant-IT Ribogreen kit by calculating the percentage encapsulation at 100%—(RNA-LNPs/RNA-LNPs with Triton X-100).
# injection site skin = experiment: In vivo tolerability after intradermal injection: H&E staining of injection site skin; set-up: species or system C57BL/6J mice; key to Infiltration, mononuclear cells, dermis/subcutaneous, focal, Grade / Edema, subcutaneous, focal, Grade / Erosion, focal, Grade / Skin, Grade: 1==minimal; 2=mild; 3=moderate; 4=marked; 5=severe; N=Normal; NA=Not applicable; —=No data; conditions: intradermal 0.15 mg/kg, 72 h, Formulation 001, RNA 331; for Edema, subcutaneous, focal, Grade / Erosion, focal, Grade / Infiltration, mononuclear cells, dermis/subcutaneous, focal, Grade: per animal; for Total score: sum of lesion grades of the group (N=3)
# Method: 7-8 week old, female C57BL/6J mice (N=3) were injected with 0.15 mg*kg−1 of RNA-LNIPs encoding for firefly-luciferase by intradermal injection. At 72-hours post injection, injection site skin from each animal was collected in 10% formalin, for H&E staining. PBS group (N=2) as control. (Note: 1==minimal, 2=mild, 3=moderate, 4=marked, 5=severe; N=Normal; NA=Not applicable; —=No data)
# Balb/c mice = experiment: In vivo expression by IV, 0.05 mg/kg luciferase RNA-LNPs, IVIS luminescence; conditions: Formulation No. 010, RNA No. 331, female Balb/c mice, 0.05 mg*kg−1 intravenous; for Whole body at 24 h (p/s) (Mean): 24 hours post injection; for Whole body at 72 h (p/s) (Mean): 72 hours post injection
# Procedure, shortened: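 Female Balb/c mice (7-8 weeks, N=3) received 0.05 mg*kg−1 firefly-luciferase RNA-LNPs IV. Luciferin (15 mg/ml) was given IP at 24 and 72 h post-dose for IVIS whole-body luminescence. A second run imaged whole body, liver and spleen at 24 h only.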
# Hep G2 cells [3] = experiment: In vitro expression: luciferase activity in Hep G2 cells transfected with RNA-LNPs; assay type: cell-based; conditions: 100 ng/mL RNA-LNPs, 72 hours post transfection
# Method: 2E5 Hep G2 cells were transfected with 100 ng/mL of RNA-LNPs encoding for firefly-luciferase. At 72 hours post transfection, the cells were washed and lysed. The luciferase expression (2-well repeat) was determined in the cell lysates with the luciferase assay reagent kit (Promega), according to the kit protocol, luciferase activity was measured by a luminometer.
# MCP-1 = experiment: In vivo tolerability by IM: serum MCP-1 by Luminex; conditions: IM 1.0 mg/kg, male C57BL/6J mice N=3, Formulation 001, RNA 331
# Method: as §1
# C57BL/6J mice [4] = experiment: In vivo expression by IM, luciferase RNA-LNPs, whole-body/injection site muscle/organ luminescence; conditions: IM 1.0 mg/kg, 24 h post injection, male C57BL/6J mice N=3, Formulation 001, RNA 331
# Method: 6-8 week old, male C57BL/6J mice (N=3) were injected with 1.0 mg*kg−1 of RNA-LNPs encoding for firefly-luciferase by intramuscular injection. At 24-hours post injection, animals were intraperitoneally injected with 15 mg/ml of Luciferin substrate and whole-body/injection site muscle/liver/spleen/kidney/heart/lung luminescence were determined by a bioluminescent in vivo imaging system (IVIS).
# [5] = RNA encapsulation efficacy (EE %) by Quant-IT Ribogreen kit; assay type: physicochemical; conditions: LNP
# Method: as §2
# C57BL/6J mice [6] = experiment: In vivo expression by ID, whole-body/injection site skin/lymph node luminescence; conditions: intradermal 0.15 mg/kg, 72 h post injection, female C57BL/6J mice N=3, Formulation 001, RNA 331
# Method: 7-8 week old, female C57BL/6J mice (N=3) were injected with 0.15 mg*kg−1 of RNA-LNPs encoding for firefly-luciferase by intradermal injection. At 72-hours post injection, animals were intraperitoneally injected with 15 mg/mi of Luciferin substrate and whole-body/injection site skin/lymph node luminescence were determined by a bioluminescent in vivo imaging system (IVIS).
# [7] = 1 μg/mL RNA-LNPs, Formulation 001, RNA 331
# [8] = Formulation No. 010, RNA No. 331, 1 μg/mL RNA-LNPs
# [9] = Formulation No. 001, RNA No. 331
# [10] = Formulation No. 010, RNA No. 331
# [11] = Formulation No. 010, RNA No. 331 (firefly-luciferase)
"PDI [2, 9]","Size [2, 9]",Size (nm) [2],"PDI [2, 10]",SMILES,IL-6 at 2 h (IL-6),IL-6 at 24 h (IL-6),In vitro cell viability (%) (Mean) (Hep G2 cells [1]; [7]),In vitro cell viability (%) (Mean) (Hep G2 cells [1]; [8]),"Edema, subcutaneous, focal, Grade (injection site skin)","Erosion, focal, Grade (injection site skin)","Infiltration, mononuclear cells, dermis/subcutaneous, focal, Grade (injection site skin)",Total score (injection site skin),Whole body at 24 h (p/s) (Mean) (Balb/c mice),Whole body at 72 h (p/s) (Mean) (Balb/c mice),"In vitro Expression (Mean) (Hep G2 cells [3]; Formulation 001, RNA 331)",In vitro Expression (Mean) (Hep G2 cells [3]; [11]),MCP-1 at 2 h (MCP-1),MCP-1 at 24 h (MCP-1),Heart (p/s) (C57BL/6J mice [4]),Injection site muscle (p/s) (C57BL/6J mice [4]),also measured
0.05,65.33 nm,56.88 nm,0.09,CCCCC/C=C\C/C=C\CCCCCCCC(=O)NC(COC(=O)NCCN1CCCCC1)C(=O)OCCCCCC(=O)OCC(CCCCCCCC)CCCCCCCCCC (stereo not drawn) [Lipid 728],24.3 pg/mL,143 pg/mL,71.13%,90.20%,— (2×) and 1,—,1,4,1.86E+08 p/s,5.78E+07 p/s,3.37E+05,4.71E+05,421 pg/mL,3740 pg/mL,4.42E+05 p/s,5.61E+08 p/s,"Kidney (p/s) (C57BL/6J mice [4]): 1.42E+07 p/s; Liver (p/s) (C57BL/6J mice [4]): 7.48E+07 p/s; Lung (p/s) (C57BL/6J mice [4]): 1.56E+06 p/s; Spleen (p/s) (C57BL/6J mice [4]): 3.40E+07 p/s; Whole body (p/s) (C57BL/6J mice [4]): 6.11E+08 p/s; EE (%) [5, 9]: 96.53%; EE (%) [5, 10]: 96.83%; Injection site Skin (p/s) (C57BL/6J mice [6]): 4.04E+06 p/s; Lymph node (p/s) (C57BL/6J mice [6]): 1.03E+06 p/s; Whole body (p/s) (C57BL/6J mice [6]): 3.58E+07 p/s"
0.10,76.05 nm,60.60 nm,0.07,CCCCCCCC/C=C\CCCCCCCC(=O)NC(COC(=O)NCCN1CCCCCC1)C(=O)OCCCCCCCCOC(=O)C(CCCCCC)CCCCCCCC (stereo not drawn) [Lipid 701],21.2 pg/mL,108 pg/mL,74.24%,96.43%,— and 1 (2×),—,1,5,4.00E+08 p/s,1.08E+08 p/s,6.00E+05,3.96E+05,628 pg/mL,4620 pg/mL,9.37E+05 p/s,5.32E+08 p/s,"Kidney (p/s) (C57BL/6J mice [4]): 2.70E+07 p/s; Liver (p/s) (C57BL/6J mice [4]): 2.35E+08 p/s; Lung (p/s) (C57BL/6J mice [4]): 2.10E+06 p/s; Spleen (p/s) (C57BL/6J mice [4]): 1.24E+08 p/s; Whole body (p/s) (C57BL/6J mice [4]): 8.27E+08 p/s; EE (%) [5, 9]: 92.16%; EE (%) [5, 10]: 95.09%; Injection site Skin (p/s) (C57BL/6J mice [6]): 3.34E+07 p/s; Lymph node (p/s) (C57BL/6J mice [6]): 6.94E+06 p/s; Whole body (p/s) (C57BL/6J mice [6]): 6.46E+07 p/s"
